Test results: US8895610B1, “Platinum (IV) compounds targeting zinc finger domains” (priority 2007, dated 2014)
Where “and” joins values, the source holds several entries; their conditions need not be identical. Equal entries are not always repeated.

Legend:
FIV Petaluma = assay: p25 antigen evaluation of antiviral activity in MBM cells; type: cell-based, feline; conditions: for p25 Viral Antigen (OD), average / p25 Viral Antigen (OD), individual wells: 7 days post infection, K+ = 1.195, K− = 0.08
Procedure: Antiviral activity in MBM was determined by inoculating 200 Tissue Culture Infectious Doses 50% FIV Petaluma (Talbott, 1989) in 100 μL RPMI 1640 medium into quadruplicate wells of 96-well microplates containing 2×10^5 cells in 100 μL medium. The cultures were monitored by measuring FIV p25 capsid protein (Lombardi, 1994) release in the supernatants after 7 days of incubation at 37° C. in 5% CO2 (Table 12). Half the media (without drug) was replaced on days 2 and 6 after infection and initial drug exposure. […] Drugs are identified as: CPA-7 (#1); NAD (#2); cisplatin (#3) and FX101 (#4). […]. […] A minimum of 50% inhibition in vitro is required to offset viral infectivity and replication in vivo.

STAT3 = STAT3 (Homo sapiens, UniProt P40763); conditions: have been shown; cited from earlier work
Chain of STAT3 (P40763 whole entry, species assumed): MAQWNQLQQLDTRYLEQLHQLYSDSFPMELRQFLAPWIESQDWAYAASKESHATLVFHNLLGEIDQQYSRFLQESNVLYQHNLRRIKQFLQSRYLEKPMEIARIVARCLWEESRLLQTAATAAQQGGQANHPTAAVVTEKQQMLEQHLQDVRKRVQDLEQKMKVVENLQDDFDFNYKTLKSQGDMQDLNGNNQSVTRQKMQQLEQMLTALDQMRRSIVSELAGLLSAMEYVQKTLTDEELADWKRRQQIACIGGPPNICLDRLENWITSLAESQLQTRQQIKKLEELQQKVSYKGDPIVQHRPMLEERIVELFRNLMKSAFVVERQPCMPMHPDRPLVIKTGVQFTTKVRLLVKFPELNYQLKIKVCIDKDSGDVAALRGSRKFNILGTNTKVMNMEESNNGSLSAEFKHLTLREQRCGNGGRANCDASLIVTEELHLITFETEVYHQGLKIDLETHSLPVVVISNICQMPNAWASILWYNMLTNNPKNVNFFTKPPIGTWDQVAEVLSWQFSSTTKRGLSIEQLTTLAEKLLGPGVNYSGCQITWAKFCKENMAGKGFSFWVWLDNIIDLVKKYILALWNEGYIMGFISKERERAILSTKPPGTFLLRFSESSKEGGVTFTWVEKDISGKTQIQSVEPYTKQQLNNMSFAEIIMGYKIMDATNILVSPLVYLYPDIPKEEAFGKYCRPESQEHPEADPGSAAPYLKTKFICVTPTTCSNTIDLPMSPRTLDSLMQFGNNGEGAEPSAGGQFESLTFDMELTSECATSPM

Compound | inhibition (elimination of all measures of virus) by day 7 (FIV Petaluma; 7 days, concentrations used 5 and 20 μM) | p25 Viral Antigen (OD), average (FIV Petaluma; conc 5 μM) | p25 Viral Antigen (OD), individual wells (FIV Petaluma; conc 5 μM) | p25 Viral Antigen (OD), average (FIV Petaluma; conc 20 μM) | p25 Viral Antigen (OD), individual wells (FIV Petaluma; conc 20 μM) | antiviral effectiveness (in words) (FIV Petaluma; p25 release, MBM cells, 7 days) | inhibition of STAT3 (STAT3)
[NH2][Pt]([NH2])([Cl])([Cl])([Cl])[N+](=O)[O-] [Drug #1] | < 30% | 1.0943 OD | 1.093 OD and 1.122 OD and 1.068 OD | 0.8163 OD | 0.788 OD and 0.825 OD and 0.836 OD | insignificantly effective | inhibit STAT3
N.N.[Cl][Pt][Cl] [Drug #3, cisplatin] | – | 1.0157 OD | 1.04 OD and 1.021 OD and 0.986 OD | 1.0133 OD | 1.014 OD and 1.033 OD and 0.993 OD | – | –
